# Data: paper PMC9804781, “Identification of a Novel Pseudo‐Natural Product Type IV IDO1 Inhibitor Chemotype” (Angewandte Chemie (International Ed. in English), 2022)
# Tests used:
# [1] = Stability of Apoxidole-1 in Serum; format: in vitro ADME; conditions: 400 µM in FBS, 37°C, up to 48 h
# Method: transparent microplates (UV-STAR®, Greiner AG, AT). Subsequently, absorbance spectra from 250 nm to 550 nm were recorded on the Spark® Multimode Microplate Reader (Tecan, AT).
# SKOV-3 cells (1.25 x 10^6 cells/flask) were seeded in two T75 tissue culture flasks and incubated for 24 h prior to addition of 17.6 ng/mL IFN-γ and 10 µM succinylacetone (SA, heme synthesis inhibitor). After 24 h, cells were treated with the compound (C) or DMSO (V, vehicle) for 15 min at 37°C. Cells were detached with trypsin/EDTA and washed thrice in cold PBS after resuspension in cold PBS. C- and V-treated samples were distributed equally into ten tubes each and subjected to heating at different temperatures in the MasterCycler EpGradient S (Eppendorf SE, DE). Afterwards, NP-40 alternative was added to a final concentration of 0.4% (v/v) and cells were lysed by five consecutive freeze/thaw cycles. Soluble fractions were separated from denatured proteins by centrifugation at 100,000 x g and 4°C for 20 min. […]
# A truncated version of recombinant human GST-IDO1 (rhIDO1) consisting of amino acids 5-400 of the 403 amino acid-long full-length human IDO1 was expressed in E. coli and purified as published previously.[15] The heme cofactor was released from IDO1 by overnight incubation with 2-mercaptoethanesulfonate (MESNA) as described previously[18] and heme occupancy was determined by UV/Vis spectrophotometry. […]
# rhIDO1 (holo-IDO1) = molecular target: T1, rhIDO1 (holo-IDO1) (Homo sapiens, UniProt P14902); test: UV/Vis spectrophotometry of the Soret peak (heme loss); format: binding; conditions: holo-IDO1, 2 h at 37 °C
# T1 construct: His; made in house; host or cells: E. coli
# T1 sequence (P14902 whole entry): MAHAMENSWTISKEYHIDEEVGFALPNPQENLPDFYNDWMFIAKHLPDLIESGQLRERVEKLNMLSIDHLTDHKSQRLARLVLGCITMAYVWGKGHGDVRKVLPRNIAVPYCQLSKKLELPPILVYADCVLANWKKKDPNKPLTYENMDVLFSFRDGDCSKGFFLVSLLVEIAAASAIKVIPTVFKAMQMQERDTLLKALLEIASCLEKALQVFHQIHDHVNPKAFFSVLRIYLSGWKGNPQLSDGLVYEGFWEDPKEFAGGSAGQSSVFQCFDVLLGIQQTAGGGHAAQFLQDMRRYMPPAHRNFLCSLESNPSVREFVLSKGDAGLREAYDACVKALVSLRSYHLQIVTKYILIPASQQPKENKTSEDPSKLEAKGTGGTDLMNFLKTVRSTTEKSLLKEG
# Method: using the ChemiDoc MP Imaging System (Bio-Rad Laboratories, DE). IDO1 protein levels were normalized to the levels of reference protein vinculin.
# BxPC-3 cells (10,000 cells/well) were seeded in 96-well plates and incubated for 24 h prior to addition of 50 ng/mL IFN-γ and compounds at indicated concentrations for 48 h. Cells were fixed with 4% paraformaldehyde for 20 min at room temperature followed by permeabilization with 0.5% Triton X-100 for 15 min at room temperature. Afterwards, unspecific binding sites were blocked with 5% non-fat milk in PBS with 0.1% (v/v) Tween-20 (PBS-T) for 60 min at room temperature followed by overnight incubation at 4°C with the primary antibodies. […]
# 11 µM rhIDO1 was incubated with compounds at indicated concentrations for 60 min at 37°C in 50 mM potassium phosphate buffer (16.9 mM K2HPO4, 33.1 mM, KH2PO4, pH 6.5). The thermal protein stability from 20°C to 90°C (1°C/min) was measured by means of the intrinsic tryptophan/tyrosine fluorescence using the Prometheus™ NT.48 (NanoTemper® Technologies, DE). Melting scans, first derivatives of melting scans and melting temperatures were analyzed using PR.ThermControl software (NanoTemper® Technologies, DE). […]
# transparent microplates (UV-STAR®, Greiner AG, AT). Subsequently, absorbance spectra from 250 nm to 550 nm were recorded on the Spark® Multimode Microplate Reader (Tecan, AT). […]
structure (smiles),measurement,setting,value
CCOC(=O)C1=CC[C@](C(=O)OC)(c2cc3ccccc3n2C)N(S(=O)(=O)c2ccc(C)cc2)[C@@H]1C(=O)OC(C)(C)C [Compound 3d],integrity of the compound in serum,[1],confirmed
same,effect on Soret peak at 404 nm (heme loss),rhIDO1 (holo-IDO1),reduced the Soret peak
